# In US20250134855A1, “CO[…] AND METHODS OF USING SAME” (LYKOS THERAPEUTICS, INC., priority 2022, published 2025):
# Legend:
# [1] = biological target: BCRP (Homo sapiens, UniProt Q9UNQ0); assay: Transporter inhibition, BCRP; settings: not told
# [2] = biological target: bile salt export pump (BSEP) (Homo sapiens, UniProt O95342); assay: Transporter inhibition, BSEP
# [3] = biological target: OATP1B1 (Homo sapiens, UniProt Q9Y6L6); assay: Transporter substrate assessment, OATP1B1
# Sequence of OATP1B1 (Q9Y6L6 whole entry): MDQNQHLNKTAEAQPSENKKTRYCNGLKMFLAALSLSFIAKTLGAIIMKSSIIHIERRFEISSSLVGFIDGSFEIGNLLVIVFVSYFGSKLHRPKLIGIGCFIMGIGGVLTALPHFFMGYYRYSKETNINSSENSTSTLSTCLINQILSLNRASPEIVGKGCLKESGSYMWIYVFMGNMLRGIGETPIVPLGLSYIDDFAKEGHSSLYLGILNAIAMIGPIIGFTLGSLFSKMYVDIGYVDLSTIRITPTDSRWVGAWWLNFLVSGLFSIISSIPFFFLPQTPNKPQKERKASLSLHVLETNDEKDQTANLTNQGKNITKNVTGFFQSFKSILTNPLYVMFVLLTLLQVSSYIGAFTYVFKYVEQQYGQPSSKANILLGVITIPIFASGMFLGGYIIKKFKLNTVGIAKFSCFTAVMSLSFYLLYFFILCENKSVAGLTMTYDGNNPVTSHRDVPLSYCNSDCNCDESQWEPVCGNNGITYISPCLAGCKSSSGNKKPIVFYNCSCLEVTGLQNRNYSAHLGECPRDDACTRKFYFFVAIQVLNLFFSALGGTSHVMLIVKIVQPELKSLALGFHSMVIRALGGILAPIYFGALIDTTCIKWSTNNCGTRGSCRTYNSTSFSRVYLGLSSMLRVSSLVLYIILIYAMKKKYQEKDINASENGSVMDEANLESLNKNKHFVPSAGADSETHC
# Sequence of bile salt export pump (BSEP) (O95342 whole entry): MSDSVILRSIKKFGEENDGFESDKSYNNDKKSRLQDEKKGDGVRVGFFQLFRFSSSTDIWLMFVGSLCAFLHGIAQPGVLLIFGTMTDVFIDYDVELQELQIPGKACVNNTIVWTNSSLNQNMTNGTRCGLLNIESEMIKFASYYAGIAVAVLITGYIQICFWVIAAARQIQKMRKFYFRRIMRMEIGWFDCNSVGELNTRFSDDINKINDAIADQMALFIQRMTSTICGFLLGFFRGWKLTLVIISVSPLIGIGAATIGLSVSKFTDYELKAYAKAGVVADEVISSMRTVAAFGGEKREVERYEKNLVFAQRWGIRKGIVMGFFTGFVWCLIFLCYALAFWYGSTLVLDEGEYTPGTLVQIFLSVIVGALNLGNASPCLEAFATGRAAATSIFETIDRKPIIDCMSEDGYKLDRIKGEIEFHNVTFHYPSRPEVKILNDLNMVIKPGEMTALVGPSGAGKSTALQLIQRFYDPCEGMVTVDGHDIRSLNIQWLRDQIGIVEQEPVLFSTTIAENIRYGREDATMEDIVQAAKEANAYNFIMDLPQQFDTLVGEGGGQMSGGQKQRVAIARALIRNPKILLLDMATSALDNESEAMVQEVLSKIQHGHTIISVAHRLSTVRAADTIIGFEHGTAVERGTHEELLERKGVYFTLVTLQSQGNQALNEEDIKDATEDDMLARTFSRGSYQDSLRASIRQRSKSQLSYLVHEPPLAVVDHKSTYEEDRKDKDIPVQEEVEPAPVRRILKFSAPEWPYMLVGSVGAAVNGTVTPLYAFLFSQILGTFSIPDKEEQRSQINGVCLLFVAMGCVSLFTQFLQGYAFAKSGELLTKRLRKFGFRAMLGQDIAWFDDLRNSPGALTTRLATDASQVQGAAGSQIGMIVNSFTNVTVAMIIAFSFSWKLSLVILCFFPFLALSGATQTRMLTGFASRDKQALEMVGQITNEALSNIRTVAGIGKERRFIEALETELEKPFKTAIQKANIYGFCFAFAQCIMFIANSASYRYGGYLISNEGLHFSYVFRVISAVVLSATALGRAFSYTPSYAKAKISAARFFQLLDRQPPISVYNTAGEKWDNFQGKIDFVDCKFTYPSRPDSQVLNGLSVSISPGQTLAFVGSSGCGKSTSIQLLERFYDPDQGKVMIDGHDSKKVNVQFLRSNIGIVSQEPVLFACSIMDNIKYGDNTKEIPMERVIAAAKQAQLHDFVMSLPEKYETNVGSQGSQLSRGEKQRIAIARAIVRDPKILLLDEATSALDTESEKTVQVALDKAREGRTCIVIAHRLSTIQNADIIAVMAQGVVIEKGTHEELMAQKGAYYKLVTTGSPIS
# Sequence of BCRP (Q9UNQ0 whole entry): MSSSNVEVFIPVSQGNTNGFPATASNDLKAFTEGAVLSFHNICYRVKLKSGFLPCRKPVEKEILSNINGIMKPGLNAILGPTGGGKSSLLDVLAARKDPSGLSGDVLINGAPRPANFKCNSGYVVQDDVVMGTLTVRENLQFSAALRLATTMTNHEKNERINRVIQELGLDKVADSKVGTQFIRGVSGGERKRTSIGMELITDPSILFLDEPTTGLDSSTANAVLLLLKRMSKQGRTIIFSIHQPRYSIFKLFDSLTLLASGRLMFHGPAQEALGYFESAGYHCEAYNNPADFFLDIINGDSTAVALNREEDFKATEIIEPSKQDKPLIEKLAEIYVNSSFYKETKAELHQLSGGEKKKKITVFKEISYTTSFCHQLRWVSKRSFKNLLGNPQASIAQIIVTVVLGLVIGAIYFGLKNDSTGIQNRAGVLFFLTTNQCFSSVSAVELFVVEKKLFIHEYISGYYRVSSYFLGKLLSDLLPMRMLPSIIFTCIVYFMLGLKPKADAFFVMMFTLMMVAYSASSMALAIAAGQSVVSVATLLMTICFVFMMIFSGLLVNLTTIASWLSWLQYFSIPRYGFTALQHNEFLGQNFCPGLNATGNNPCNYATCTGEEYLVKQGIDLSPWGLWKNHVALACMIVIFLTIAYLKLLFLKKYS
smiles,measurement,setting,value
"CNC(C)Cc1ccc2c(c1)OCO2 (stereo not drawn) [MDMA, 3,4-methylenedioxymethamphetamine]",inhibition of BCRP,[1],not an inhibitor
same,inhibition of BSEP,[2],not an inhibitor
same,substrate of OATP1B1,[3],not a substrate
